Patent US12503471B2, “Triazatricycle compounds for the treatment of autoimmune disease” (Hoffmann-La Roche Inc., priority 2019, dated 2025)

Each compound was assayed against T1, human TLR9 (Homo sapiens, UniProt Q9NR96) (assay: HEK293-Blue-hTLR-9 cells assay). Conditions: HEK293-Blue-hTLR9 cells, ODN2006 stimulation, 20 hrs, SEAP reporter; read-out: HEK/hTLR9 IC50.
T1 construct: host or cells: HEK293 (HEK-Blue hTLR9)
T1 sequence (Q9NR96 26-1032): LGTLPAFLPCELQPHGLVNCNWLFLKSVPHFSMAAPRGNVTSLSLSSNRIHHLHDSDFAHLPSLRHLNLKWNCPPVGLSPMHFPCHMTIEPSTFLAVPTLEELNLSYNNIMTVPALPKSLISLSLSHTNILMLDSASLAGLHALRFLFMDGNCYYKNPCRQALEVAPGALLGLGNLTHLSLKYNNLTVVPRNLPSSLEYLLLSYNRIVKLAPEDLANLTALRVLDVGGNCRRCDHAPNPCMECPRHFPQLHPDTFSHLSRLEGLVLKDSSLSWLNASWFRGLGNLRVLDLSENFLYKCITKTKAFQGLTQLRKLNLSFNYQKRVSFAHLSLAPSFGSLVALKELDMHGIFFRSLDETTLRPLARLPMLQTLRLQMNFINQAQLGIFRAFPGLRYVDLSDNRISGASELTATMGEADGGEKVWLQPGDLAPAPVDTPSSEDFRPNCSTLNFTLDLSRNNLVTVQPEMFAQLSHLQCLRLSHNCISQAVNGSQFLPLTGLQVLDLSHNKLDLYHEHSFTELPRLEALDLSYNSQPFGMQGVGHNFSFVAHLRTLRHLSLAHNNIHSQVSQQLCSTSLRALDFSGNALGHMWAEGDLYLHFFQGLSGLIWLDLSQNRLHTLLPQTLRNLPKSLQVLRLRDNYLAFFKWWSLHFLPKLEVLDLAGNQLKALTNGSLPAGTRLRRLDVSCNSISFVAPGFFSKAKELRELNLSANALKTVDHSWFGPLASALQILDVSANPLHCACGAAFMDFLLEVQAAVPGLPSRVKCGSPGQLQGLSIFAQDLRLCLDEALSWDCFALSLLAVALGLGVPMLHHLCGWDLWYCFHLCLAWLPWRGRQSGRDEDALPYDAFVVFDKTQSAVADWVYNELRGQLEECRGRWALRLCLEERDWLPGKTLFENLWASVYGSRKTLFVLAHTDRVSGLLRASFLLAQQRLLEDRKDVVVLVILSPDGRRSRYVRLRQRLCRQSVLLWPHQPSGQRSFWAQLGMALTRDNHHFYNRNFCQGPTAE
Format: cell-based
Excerpt: HEK293-Blue-hTLR-9 Cells Assay:
A stable HEK293-Blue-hTLR-9 cell line was purchased from InvivoGen (Cat. #: hkb-htlr9, San Diego, Calif., USA). These cells were originally designed for studying the stimulation of human TLR9 by monitoring the activation of NF-κB. A SEAP (secreted embryonic alkaline phosphatase) reporter gene was placed under the control of the IFN-β minimal promoter fused to five NF-κB and AP-1-binding sites. The SEAP was induced by activating NF-κB and AP-1 via stimulating HEK-Blue hTLR9 cells with TLR9 ligands. Therefore the reporter expression was declined by TLR9 antagonist under the stimulation of a ligand, such as ODN2006 (Cat. #: tlrl-2006-1, Invivogen, San Diego, Calif., USA), for incubation of 20 hrs. The cell culture supernatant SEAP reporter activity was determined using QUANTI-Blue^TM kit (Cat. #: rep-qbl, Invivogen, San Diego, Calif., USA) at a wavelength of 640 nm, a detection medium that turns purple or blue in the presence of alkaline phosphatase.
HEK293-Blue-hTLR9 cells were incubated at a density of 250,000˜450,000 cells/mL in a volume of 170 μL in a 96-well plate in Dulbecco's Modified Eagle's medium (DMEM) containing 4.5 g/L glucose, 50 U/mL penicillin, […] streptomycin, […] Normocin, 2 mM L-glutamine, 10% (v/v) heat-inactivated fetal bovine serum with addition of 20 μL test compound in a serial dilution in the presence of final DMSO at 1% and 10 μL of 20 uM ODN2006 in above DMEM, perform incubation under 37° C. in a CO2 incubator for 20 hrs. Then 20 μL of the supernatant from each well was incubated with 180 μL Quanti-blue substrate solution at 37° C. for 2 h and the absorbance was read at 620-655 nm using a spectrophotometer. The signaling pathway that TLR9 activation leads to downstream NF-κB activation has been widely accepted, and therefore similar reporter assay was modified for evaluating TLR9 antagonist.

Structure (SMILES)	IC50
C[C@@H]1CN(c2ccc(C#N)c3ncccc23)C[C@@H]2c3cnc(N4CCNCC4)cc3CN12 [Example 2, 5-[(2S,6R)-6-methyl-11-piperazin-1-yl-4,7,12-triazatricyclo[7.4.0.02,7]trideca-1(9),10,12-trien-4-yl] quinoline-8-carbonitrile]	449 nM
N#Cc1ccc(N2CCN3Cc4nc(N5CCNCC5)ccc4[C@@H]3C2)c2cccnc12 [Example 3A, 5-[(2R)-11-piperazin-1-yl-4,7,10-triazatricyclo[7.4.0.02,7]trideca-1(9),10,12-trien-4-yl]quinoline-8-carbonitrile]	142 nM
CC1(N)CCN(c2ccc3c(n2)CN2CCN(c4ccc(C#N)c5ncccc45)C[C@@H]32)CC1 [Example 4A, 5-[(2R)-11-(4-amino-4-methyl-1-piperidyl)-4,7,10-triazatricyclo[7.4.0.02,7]trideca-1(9),10,12-trien-4-yl]quinoline-8-carbonitrile]	56.6 nM
C[C@@H]1CN(c2ccc(C#N)c3ncccc23)C[C@@H]2c3ccc(N4CCNCC4)nc3CN12 [Example 5, 5-[(2S,6R)-6-methyl-11-piperazin-1-yl-4,7,10-triazatricyclo[7.4.0.02,7]trideca-1(9),10,12-trien-4-yl]quinoline-8-carbonitrile]	252 nM
C[C@@H]1CN(c2ccc(C#N)c3ncccc23)C[C@@H]2c3ccc(N4CC5CNCC(C4)O5)nc3CN12 [Example 6, 5-[(2S,6R)-6-methyl-11-(9-oxa-3,7-diazabicyclo[3.3.1]nonan-3-yl)-4,7,10-triazatricyclo[7.4.0.02,7]trideca-1(9),10,12-trien-4-yl]quinoline-8-carbonitrile]	195 nM
[2H]c1ccc2c(N3C[C@@H](C)N4Cc5nc(N6CC[C@@](C)(N)C6)ccc5[C@H]4C3)ccc(C#N)c2n1 [Example 7, 5-[(2S,6R)-11-[(3R)-3-amino-3-methyl-pyrrolidin-1-yl]-6-methyl-4,7,10-triazatricyclo[7.4.0.02,7]trideca-1(9),10,12-trien-4-yl]-2-deuterio-quinoline-8-carbonitrile]	236 nM
[2H]c1ccc2c(N3C[C@@H](C)N4Cc5nc(N6CC[C@](C)(N)C6)ccc5[C@H]4C3)ccc(C#N)c2n1 [Example 8, 5-[(2S,6R)-11-[(3S)-3-amino-3-methyl-pyrrolidin-1-yl]-6-methyl-4,7,10-triazatricyclo[7.4.0.02,7]trideca-1(9),10,12-trien-4-yl]-2-deuterio-quinoline-8-carbonitrile]	139 nM
[2H]c1ccc2c(N3C[C@@H](C)N4Cc5nc(N6CCC7(CNC7)C6)ccc5[C@H]4C3)ccc(C#N)c2n1 [Example 9, 2-Deuterio-5-[(2S,6R)-11-(2,6-diazaspiro[3.4]octan-6-yl)-6-methyl-4,7,10-triazatricyclo[7.4.0.02,7]trideca-1(9),10,12-trien-4-yl]quinoline-8-carbonitrile]	106 nM
[2H]c1ccc2c(N3C[C@@H](C)N4Cc5nc(N6CC[C@H]7CNC[C@H]76)ccc5[C@H]4C3)ccc(C#N)c2n1 [Example 10, 5-[(2S,6R)-11-[(3aS,6aS)-3,3a,4,5,6,6a-hexahydro-2H-pyrrolo[2,3-c]pyrrol-1-yl]-6-methyl-4,7,10-triazatricyclo[7.4.0.02,7]trideca-1(9),10,12-trien-4-yl]-2-deuterio-quinoline-8-carbonitrile]	186 nM
[2H]c1ccc2c(N3C[C@@H](C)N4Cc5nc(N6CC[C@@H](N)[C@H](OC)C6)ccc5[C@H]4C3)ccc(C#N)c2n1 [Example 11, 5-[(2S,6R)-11-[(3R,4R)-4-amino-3-methoxy-1-piperidyl]-6-methyl-4,7,10-triazatricyclo[7.4.0.02,7]trideca-1(9),10,12-trien-4-yl]-2-deuterio-quinoline-8-carbonitrile]	202 nM
